Measured values as given in article PMC12030314, “Biomarker-Driven Pharmacokinetics and Efficacy of Polymyxin B in Critically Ill Patients with XDR-GN Pneumonia” (Pharmaceuticals, 2025).
Like-named read-outs stand apart in the source and are kept apart here. Where a SMILES comes first, the peptide text is derived from it. Bridges are numbered along the chain shown (N, C = ends). [ ]: non-standard residue; d: D form. The star is where a group is joined. X1 = CC[C@H](C)CCCCC(=O)*; Dab = NCC[C@H](N)C(=O)O

Legend:
[1] = Plasma pharmacokinetics of intravenous PMB in critically ill patients (UPLC-MS/MS; noncompartmental and two-compartment analysis); assay type: in vivo, human; settings: for Cmax: read-out: Css,max; for AUC(0-t): read-out: AUCss,0–24h
Protocol: The patients received a 100 mg loading dose followed by a maintenance dose of 50 mg every 12 h. PMB was administered by short-term infusions (60 min). Blood samples were collected from each patient in three stages.
Phase of first dose: Blood samples were collected at defined time points to capture PK data.
Phase of steady state: Although a steady state of PMB concentration can be achieved after 48 h of treatment, considering the special condition of critically ill patients, blood samples were collected immediately before the initiation of the seventh dose (trough) and immediately at the end of the seventh dose (peak).
During the last dose phase, blood samples were collected immediately before the initiation of the last dose, immediately at the end of the last dose, and randomly (at least eight blood samples for each person) at 1.5, 2, 2.5, 3, 5, 7, 9, 12, 15, 19, 24, 48, and 72 h after completing the infusion.
Blood and BAL samples were centrifuged for 10 min (3000 rpm) and immediately stored at −80 °C until analysis.
PMB concentrations in the samples were quantified by monitoring the total concentrations of polymyxin B1 (PB1), polymyxin B2 (PB2), polymyxin B3 (PB3), and isoleucine polymyxin B1 (I-PB1) via a validated ultraperformance liquid chromatography–tandem mass spectrometry (UPLC-MS/MS) assay. The standard substances, including PB1 (CAS P037), PB2 (CAS P037), PB3 (CAS P040), and I-PB1 (CAS P038), were purchased by TOKU-E Company (>99% pure, Bellingham, WA, USA). ACQUITY UPLC system, Quattro PremierXE triple quadrupole mass spectrometer, electrospray isonizaiton source (ESI), and Masslynx 4.1 data processing software were used in this study (Waters Company, Milford, MA, USA). An Acquity UPLC BEH C18 column (50 mm × 2.1 mm internal diameter, 1.8 μm) purchased from Waters (Milford, MA, USA) was used. The mobile phase comprised a 0.2% formic acid aqueous solution and a 0.2% formic acid acetonitrile solution, and the flow rate was 0.3 mL/min. Mass spectrometric detection was performed in positive electrospray ionization (ESI+) mode with multiple reaction monitoring (MRM). The optimized transitions were set as follows: m/z 602.7→101.0 for PB1 and I-PB1, m/z 595.7→100.9 for PB2 and PB3, and […] for the internal standard norvancomycin. Plasma and BAL supernatant was aliquoted into microcentrifuge tubes and sequentially treated with 20 μL norvancomycin or 200 μL 5% trichloroacetic acid. 1 μL plasma and 2 μL BAL of supernatant were collected separately for the detection of PMB concentrations.
Analysis of independently prepared quality control samples indicated good reproducibility (coefficients of variation ≤ 8.39%) and accuracy (measured concentrations ≤ 10.0% from target concentrations). The standard curve was linear over the range of 0.5 to 10,000 ng/mL, with precision and accuracy of less than 15%. The regression coefficient was 0.9985. The relative standard deviation values for the intra- and inter-day precision at low, middle, and high levels were all less than 6%, and the recovery rate was 83.1–85.4%.
The plasma concentration–time values for PMB were analysed via Phoenix WinNonlin 8.1. The data were explored via noncompartmental and two-compartment PK models. The principles for final model selection were a low Akaike information criterion (AIC), visual evaluation of individual plasma concentration–time profiles, and precision of parameter estimations on the basis of one sample t-test or the correlation coefficient. The following PK parameters were generated via noncompartmental and two-compartment analysis: Cmax, CL, Vd, t1/2, k, and AUC was determined via the linear trapezoidal rule. The PMB Css,avg was calculated from the Cmax and Cmin that were directly obtained from the observed peak and trough concentrations in the stable state. The simulated concentrations were obtained via compartment PK models. Factors that affect PMB PK parameters were also evaluated.

[2] = cited from earlier work
Description: Colistin (colistin methanesulfonate, CMS) and polymyxin B (PMB) are polymyxins that were approved for clinical use in the 1950s worldwide. Colistin is clinically administered as a prodrug, which requires conversion to the active form in vivo. […] The elimination of colistin is primarily dependent on renal function. Patients with renal impairment are prone to drug accumulation and increased nephrotoxicity risk. PMB is ... || Finally, we cannot rule out the possibility of the potential impacts of other combined drugs on PMB PK and the heterogeneity among the patients in our study. To date, little evidence supports the conclusion that the combined use of other drugs affects PMB PK. Studies have shown that urinary recovery from PMB is low (<5%). […] Further studies examining the nonrenal routes of PMB elimination are warranted, ...

[3] = 27 critically ill patients, iv 100 mg loading, 50 mg q12h, noncompartmental analysis after last dose, mean
[4] = Treatment Failure (n = 5), median [IQR]
[5] = human, plasma, iv, 50 mg, Treatment Success (n = 22), median [IQR]
[6] = human, plasma, iv, 50 mg, Table 2, 27 enrolled patients, mean

Which “half-life (t1/2)” value [1, 3] does the source give for `CC[C@H](C)CCCCC(=O)N[C@@H](CCN)C(=O)N[C@H](C(=O)N[C@@H](CCN)C(=O)N[C@H]1CCNC(=O)[C@H]([C@@H](C)O)NC(=O)[C@H](CCN)NC(=O)[C@H](CCN)NC(=O)[C@H](CC(C)C)NC(=O)[C@@H](Cc2ccccc2)NC(=O)[C@H](CCN)NC1=O)[C@@H](C)O` [PMB, polymyxin B] (X1-[Dab]T[Dab][Dab][Dab][dF]L[Dab][Dab]T; lactam 4-C) here?
The value was 19.56 h.

And the “volume of distribution (Vd)” value [1, 3]?
Its value is 30.44 L.

And the “Css,avg” value ([1]; Table 2, 27 enrolled patients, mean)?
Its value is 5.1 µg/mL.

What about the “Css,avg” value ([1]; Total (n = 27), median [IQR]) of the same molecule?
The value was 5.2 [3.8, 5.9].

What about the “Css,max” value ([1]; Total (n = 27), median [IQR]) of the same molecule?
The value was 8.7 [6.6, 10.1].

What about the “Css,avg” value [1, 4] of the same molecule?
The value was 6.6 [5.9, 7.7].

What about the “Css,max” value [1, 4] of the same molecule?
Its value is 11.1 [9.9, 11.4].

What about the “Css,avg” value ([1]; Treatment Success (n = 22), median [IQR]) of the same molecule?
Its value is 5.0 [3.7, 5.5].

What about the Cmax ([1]; human, plasma, iv, 50 mg, Table 2, 27 enrolled patients, iv 100 mg loading, 50 mg q12h, mean) of the same molecule?
Its Cmax is 8300 ng/mL.

What about the AUC(0-t) ([1]; human, plasma, iv, 50 mg, Total (n = 27), median [IQR]) of the same molecule?
The AUC(0-t) was 101 µg·h/mL.

What about the AUC(0-t) ([1]; human, plasma, iv, 50 mg, Treatment Failure (n = 5), median [IQR]) of the same molecule?
The AUC(0-t) was 64.7 µg·h/mL.

What about the AUC(0-t) [1, 5] of the same molecule?
The AUC(0-t) was 112 µg·h/mL.

And the Cmax [1, 5]?
Its Cmax is 8700 ng/mL.

What about the Vd [1, 6] of the same molecule?
Its Vd is 30.4 L.

What about the clearance [1, 6] of the same molecule?
The clearance was 26.7 mL/min.

And the half-life [1, 6]?
Its half-life is 19.6 h.

And the AUC(0-t) [1, 6]?
Its AUC(0-t) is 110 µg·h/mL.

And the urinary recovery [2]?
Its urinary recovery is under 5%.

And the “hepatobiliary metabolism (non-renal clearance)” value ([2]; in vivo)?
The value was about 60%.
